Source: PubChem BioAssay AID1963828 (Molecular Pharmacology Branch, DTP, NCI, 2024)

Test system: 991263-137-R1-J2-PDC complex spheroid viability
Test: Anticancer human tumor 991263-137-R1-J2-PDC patient-derived colon adenocarcinoma cell line growth inhibition [POLQ]
Details: for IC50: curve of first compound; for viability, T/C: stronger effect = lower value
Procedure: Multicellular complex tumor spheroid response to Polymerase (POL) inhibitors (novobiocin, ART-558, RP6685) in combination with a variety of drugs and investigational agents in selected tumor cell lines
The POL inhibitors (novobiocin, ART-558, and RP6685) were evaluated both individually and in combination with standard of care and investigational anticancer small molecules within a complex spheroid model of solid tumors. . Complex spheroids include a stromal component modeled by human endothelial cells (HUVEC) and fibroblasts modeled by human mesenchymal stem cells (MSCs). The concentration ranges selected for each drug and investigational agent were based upon clinically achievable concentrations if the clinical Cmax of the agent was known.
Compounds. The drugs and investigational agents: novobiocin (NSC847541), ART-558 (NSC835418), RP-6685 (NSC848927), peposertib (NSC802822), ceralasertib (NSC780249), elimusertib (NSC800525), camonsertib (NSC841442), AZD-1390 (NSC803789), olaparib (NSC753686), talazoparib (NSC767125), rucaparib (NSC756644), sotorasib (NSC818433), MRTX-1133 (NSC836407), SN-38 (NSC673596), topotecan (NSC609699), epotoside (NSC141540), doxorubicin (NSC123127), gemcitabine (NSC613327), 5-fluorouracil (NSC19893), paclitaxel (NSC125973), vemurafenib (NSC761431), MSA-2 (NSC828583), SN-011 (NSC837082), adavosertib (NSC754352), prexasertib (NSC758257), carboplatin (NSC241240) and oxaliplatin (NSC266046), were obtained from the National Cancer Institute (NCI) Developmental Therapeutics Program Chemical Repository (21). The FDA-approved anticancer drug set is available from the Developmental Therapeutics Program at https://dtp.cancer.gov/organization/dscb/obtaining/. […] The stock solutions were prepared in dimethyl sulfoxide (DMSO, Sigma-Aldrich, St. Louis, MO, cat. D2650), except for the platinum compounds which were prepared in saline (Quality Biological, Gaithersburg, MD, cat. 114-055-101), at 800-fold the tested concentration and stored at -70 degrees C prior to their use. All drugs and investigational agents were tested over a range starting from a high concentration at or near the clinical Cmax and decreasing in half-log increments. If the clinical Cmax for an agent had not been determined, the highest concentration tested was 10 microM, except for SN-38, which was tested at a high concentration of 1 microM.
Cell Culture. All cells were maintained in an incubator at 37 degrees C and 5% CO2 with 95% humidity. The PDC lines were cultured according to standard operating procedures established by the NCI PDMR (https://pdmr.cancer.gov). Table 3 of the manuscript, lists the cell lines along with the number of the three cell types plated to form the mct-spheroids and media for tumor cell growth. After thawing, all PDC lines, except 997537-175-T-J1-PDC and 415267-285-R-J2-PDC, were cultured in Matrigel-coated flasks prepared with a working solution of 1X Ham's F-12 nutrient mix, without supplementation (Thermo Fisher Scientific, cat. 11765054), 100 U/mL penicillin-streptomycin (Thermo Fisher Scientific, cat. 15140122), and 2.5% Matrigel (Corning Inc., Corning, NY, cat. 354248) for the first three passages. The two PDC lines 997537-175-T-J1-PDC and 415267-285-R-J2-PDC were cultured on uncoated flasks. The 857933-349-R-J2-PDC line was cultured in 6C/Colon 1B media containing advanced DMEM/F-12 (Thermo Fisher Scientific, cat. 12634028), 10 mM HEPES (Thermo Fisher Scientific, cat. 15630080), 1X GlutaMAX supplement (Thermo Fisher Scientific, cat. 35050061), 0.1 mg/mL primocin (InvivoGen, San Diego, CA, cat. ant-pm-2), 10% defined fetal bovine serum, heat inactivated (HyClone Laboratories Inc., Logan, UT, cat. SH30070.03HI), 50% L-WRN conditioned media (ATCC, cat. CRL-3276), 1.25 mM N-Acetyl-L-cysteine (Sigma-Aldrich, cat. A9165), 10 mM nicotinamide (Sigma-Aldrich, cat. N0636), 1X B-27 supplement (Thermo Fisher Scientific, cat. 17504044), 1X N-2 supplement (Thermo Fisher Scientific, cat. […]

[1] = second compound 0.0316 µM, first compound 0.0316 µM
[2] = second compound 0.0316 µM, first compound 0.1 µM
[3] = second compound 0.0316 µM, first compound 0.316 µM
[4] = second compound 0.0316 µM, first compound 1 µM
[5] = second compound 0.0316 µM, first compound 3.16 µM
[6] = second compound 0.0316 µM, first compound 10 µM
[7] = second compound 0.1 µM, first compound 0.0316 µM
[8] = second compound 0.1 µM, first compound 0.1 µM
[9] = second compound 0.1 µM, first compound 0.316 µM
[10] = second compound 0.1 µM, first compound 1 µM
[11] = second compound 0.1 µM, first compound 3.16 µM
[12] = second compound 0.1 µM, first compound 10 µM
[13] = second compound 0.316 µM, first compound 0.0316 µM
[14] = second compound 0.316 µM, first compound 0.1 µM
[15] = second compound 0.316 µM, first compound 0.316 µM
[16] = second compound 0.316 µM, first compound 1 µM
[17] = second compound 0.316 µM, first compound 3.16 µM
[18] = second compound 0.316 µM, first compound 10 µM
[19] = second compound 1 µM, first compound 0.0316 µM
[20] = second compound 1 µM, first compound 0.1 µM
[21] = second compound 1 µM, first compound 0.316 µM
[22] = second compound 1 µM, first compound 1 µM
[23] = second compound 1 µM, first compound 3.16 µM
[24] = second compound 1 µM, first compound 10 µM
[25] = second compound 3.16 µM, first compound 0.0316 µM
[26] = second compound 3.16 µM, first compound 0.1 µM
[27] = second compound 3.16 µM, first compound 0.316 µM
[28] = second compound 3.16 µM, first compound 1 µM
[29] = second compound 3.16 µM, first compound 3.16 µM
[30] = second compound 3.16 µM, first compound 10 µM
[31] = second compound 10 µM, first compound 0.0316 µM
[32] = second compound 10 µM, first compound 0.1 µM
[33] = second compound 10 µM, first compound 0.316 µM
[34] = second compound 10 µM, first compound 1 µM
[35] = second compound 10 µM, first compound 3.16 µM
[36] = second compound 10 µM, first compound 10 µM
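Note: spheroids exposed to compounds for 7 days before readout.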
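Throughout, for viability, T/C: 100% = DMSO vehicle control viability.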

CC1COCCN1c1cc(C2(S(C)(=N)=O)CC2)nc(-c2ccnc3[nH]ccc23)n1 (centres undefined) + COC1C(OC(N)=O)C(O)C(Oc2ccc3c(O)c(NC(=O)c4ccc(O)c(CC=C(C)C)c4)c(=O)oc3c2C)OC1(C)C was tested. Which IC50 (second compound 0.0316 µM) did it give?
Its IC50 is over 10 µM.

And the IC50 (second compound 0.1 µM)?
The IC50 was over 10 µM.

And the IC50 (second compound 0.316 µM)?
Its IC50 is over 10 µM.

What about the IC50 (second compound 1 µM) of the same compound?
The IC50 was over 10 µM.

And the IC50 (second compound 3.16 µM)?
Its IC50 is over 10 µM.

What about the IC50 (second compound 10 µM) of the same compound?
The IC50 was over 10 µM.

What about the viability, T/C [1] of the same compound?
The viability, T/C was 99.2%.

And the viability, T/C [2]?
The viability, T/C was 84.5%.

What about the viability, T/C [3] of the same compound?
Its viability, T/C is 104%.

And the viability, T/C [4]?
The viability, T/C was 87%.

And the viability, T/C [5]?
Its viability, T/C is 91.5%.

What about the viability, T/C [6] of the same compound?
Its viability, T/C is 66.1%.

What about the viability, T/C [7] of the same compound?
Its viability, T/C is 113%.

And the viability, T/C [8]?
Its viability, T/C is 112%.

And the viability, T/C [9]?
The viability, T/C was 101%.

And the viability, T/C [10]?
Its viability, T/C is 89.2%.

What about the viability, T/C [11] of the same compound?
Its viability, T/C is 97.6%.

And the viability, T/C [12]?
The viability, T/C was 55.4%.

What about the viability, T/C [13] of the same compound?
The viability, T/C was 96.3%.

And the viability, T/C [14]?
The viability, T/C was 106%.

What about the viability, T/C [15] of the same compound?
Its viability, T/C is 89.9%.

What about the viability, T/C [16] of the same compound?
The viability, T/C was 69.6%.

What about the viability, T/C [17] of the same compound?
Its viability, T/C is 104%.

What about the viability, T/C [18] of the same compound?
Its viability, T/C is 83.8%.

What about the viability, T/C [19] of the same compound?
Its viability, T/C is 106%.

And the viability, T/C [20]?
The viability, T/C was 103%.

What about the viability, T/C [21] of the same compound?
Its viability, T/C is 91.2%.

What about the viability, T/C [22] of the same compound?
Its viability, T/C is 89.5%.

What about the viability, T/C [23] of the same compound?
The viability, T/C was 96.5%.

And the viability, T/C [24]?
Its viability, T/C is 79.9%.

What about the viability, T/C [25] of the same compound?
Its viability, T/C is 92.8%.

What about the viability, T/C [26] of the same compound?
The viability, T/C was 85.9%.

What about the viability, T/C [27] of the same compound?
Its viability, T/C is 98.3%.

And the viability, T/C [28]?
The viability, T/C was 106%.

What about the viability, T/C [29] of the same compound?
Its viability, T/C is 103%.

What about the viability, T/C [30] of the same compound?
Its viability, T/C is 84%.

What about the viability, T/C [31] of the same compound?
Its viability, T/C is 86.8%.

And the viability, T/C [32]?
Its viability, T/C is 106%.

What about the viability, T/C [33] of the same compound?
The viability, T/C was 105%.

And the viability, T/C [34]?
The viability, T/C was 96.6%.

And the viability, T/C [35]?
The viability, T/C was 107%.

And the viability, T/C [36]?
The viability, T/C was 70.9%.

Which results are given for COc1cc(C2c3cc4c(cc3C(OC3OC5COC(C)OC5C(O)C3O)C3COC(=O)C23)OCO4)cc(OC)c1O (centres undefined) + COC1C(OC(N)=O)C(O)C(Oc2ccc3c(O)c(NC(=O)c4ccc(O)c(CC=C(C)C)c4)c(=O)oc3c2C)OC1(C)C?
IC50 (second compound 0.0316 µM): > 10 µM; IC50 (second compound 0.1 µM): > 10 µM; IC50 (second compound 0.316 µM): > 10 µM; IC50 (second compound 1 µM): > 10 µM; IC50 (second compound 3.16 µM): > 10 µM; IC50 (second compound 10 µM): > 10 µM; viability, T/C [1]: 120%; viability, T/C [2]: 105%; viability, T/C [3]: 98.9%; viability, T/C [4]: 94.9%; viability, T/C [5]: 98.2%; viability, T/C [6]: 76.1%; viability, T/C [7]: 118%; viability, T/C [8]: 108%; viability, T/C [9]: 118%; viability, T/C [10]: 92%; viability, T/C [11]: 95.9%; viability, T/C [12]: 83.3%; viability, T/C [13]: 95.7%; viability, T/C [14]: 104%; viability, T/C [15]: 96.1%; viability, T/C [16]: 90.3%; viability, T/C [17]: 84.8%; viability, T/C [18]: 73.1%; viability, T/C [19]: 107%; viability, T/C [20]: 99.1%; viability, T/C [21]: 100%; viability, T/C [22]: 83.2%; viability, T/C [23]: 106%; viability, T/C [24]: 94%; viability, T/C [25]: 96.2%; viability, T/C [26]: 113%; viability, T/C [27]: 109%; viability, T/C [28]: 115%; viability, T/C [29]: 97.6%; viability, T/C [30]: 72.3%; viability, T/C [31]: 83.9%; viability, T/C [32]: 115%; viability, T/C [33]: 98.9%; viability, T/C [34]: 91.2%; viability, T/C [35]: 101%; viability, T/C [36]: 80.8%
